# PubChem BioAssay (NCI)
# “And” between values parts separate entries of the source, which are not always exact repeats. Identical values can stand only once.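 Tested at 5 concentrations; 48 h exposure; 96-well plates; endpoints linearly interpolated, else capped at highest concentration. GI50 is the concentration that inhibits growth by half. TGI is the concentration that stops growth completely.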
# Tests used:
# Assay in all cases: NCI tumour cell line growth inhibition, 48 h
# MOLT-4 leukemia = tested on: MOLT-4 leukemia
# NCI-H226 lung = tested on: NCI-H226 lung
# A498 renal = tested on: A498 renal
# 786-0 renal = tested on: 786-0 renal
# CAKI-1 renal = tested on: CAKI-1 renal
# CCRF-CEM leukemia = tested on: CCRF-CEM leukemia
# NCI-H460 lung = tested on: NCI-H460 lung
# MALME-3M melanoma = tested on: MALME-3M melanoma
# LOX IMVI melanoma = tested on: LOX IMVI melanoma
# SK-MEL-2 melanoma = tested on: SK-MEL-2 melanoma
Compound,TGI (MOLT-4 leukemia),TGI (NCI-H226 lung) [µM],TGI (A498 renal),TGI (786-0 renal) [µM],TGI (CAKI-1 renal) [µM],TGI (CCRF-CEM leukemia),TGI (NCI-H460 lung) [µM],TGI (MALME-3M melanoma),TGI (LOX IMVI melanoma),TGI (SK-MEL-2 melanoma),GI50 (MOLT-4 leukemia) [µM],GI50 (A498 renal) [µM],GI50 (786-0 renal) [µM],GI50 (CAKI-1 renal) [µM],GI50 (SK-MEL-2 melanoma) [µM],GI50 (CCRF-CEM leukemia) [µM],GI50 (NCI-H460 lung) [µM],GI50 (LOX IMVI melanoma) [µM],GI50 (NCI-H226 lung) [µM],GI50 (MALME-3M melanoma) [µM]
COc1ccc2c(=O)c(C)c(-c3ccccc3)oc2c1CN(C)C,> 100 µM,> 100,> 100 µM,> 100,> 100,> 100 µM,> 100,> 100 µM,> 100 µM,,,,,,,,,,,
Cc1nc(Cl)nc(Cl)c1C,> 100 µM,> 100,,> 100,,> 100 µM,> 100,> 100 µM,> 100 µM,> 100 µM,,,,,,,,,,
COc1ccc(C[C@@H]2Cc3cc(OC)c(OC)cc3CN2C)cc1,> 100 µM,,> 100 µM,> 100,> 100,> 100 µM,> 100,> 100 µM,,> 100 µM,,,,,,,,,,
CC1(C)COC(C23C4C5C2C2C3C4C52I)=N1 (configuration not stated),> 100 µM,> 100,> 100 µM,> 100,> 100,> 100 µM,> 100,> 100 µM,,,,,,,,,,,,
CCOC(C)C(/C=N/NC(N)=S)=NNC(N)=S (configuration not stated),> 100 µM,,85.2 µM,> 100,> 100,> 100 µM,> 100,> 100 µM,> 100 µM,> 85.3 µM,,,,,,,,,,
O=S1c2ccccc2N=C(c2ccc3ccccc3c2)CC1C1=CC=CCC1 (configuration not stated),40.5 µM,43.9,,29.8,29.6,23.6 µM,54.5,62.3 µM,30.8 µM,40.5 µM,,,,,,,,,,
COC(=O)/C=C1/CCC2[C@@H](C(=O)CC3[C@]2(C)CCC[C@@]3(C)C(=O)OC)C1C (some centres not stated),19.1 µM,46.1,34.4 µM,36,17.4,17.6 µM,51.7,34.8 µM,,35.7 µM,,,,,,,,,,
CC1=C(C(=O)Nc2ccc(F)c(Cl)c2)C(c2ccccc2Cl)NC(=S)N1 (configuration not stated),> 50 µM,,48.1 µM,> 50,> 50,> 50 µM,> 50,,> 50 µM,> 50 µM,> 50,12.9,30,37,26.8,> 50,23.7,15.1,,
CC1CC2(C)ON=C(c3ccccc3)N2c2ccccc2S1 (configuration not stated),44.9 µM,,,,,77.6 µM,,,50.1 µM,,16,34.7,34.4,78.6,,28.1,41.3,22,,
CN(C)CCNC(=O)c1cc2ccccc2c2nc3ccccc3nc12,0.487 µM,2.44,2.4 µM,> 38.2,> 21.3,,,2.06 µM,1.88 µM,2.81 µM,,,,,,,,,,
CCCCCCCCCCCCCC(=O)O[C@H]1CC[C@H](NC(=O)[C@H](OC)[C@H](O)[C@@H](O)[C@H](O)/C=C/C(C)C)C(=O)NC1,16.9 µM and 14.5 µM,4.29,51.2 µM and > 100 µM,0.928,,8.44 µM and 10.7 µM,,7.97 µM and 38.7 µM,9.4 µM and 1.15 µM,51.2 µM and 9.49 µM,,,,,,,,,0.00206,
Cc1cc(N2CCCCC2)nc(N(CCCNc2ccnc3cc(Cl)ccc23)Cc2ccco2)n1,7.18 µM,11.8,9.39 µM,3.27,,12.6 µM,4.23,3.68 µM,2.65 µM,6.25 µM,2.45,2.66,1.61,,2.4,2.01,1.8,1.24,2.9,2.03
Cc1cc(NS(=O)(=O)c2ccc(N=Nc3cc(N=Nc4ccc(S(=O)(=O)Nc5cc(C)nc(C)n5)cc4)c4c(NC(=O)C(Cl)Cl)cccc4c3OC(=O)C(Cl)Cl)cc2)nc(C)n1 (tested in a mixture with another compound),> 100 µM,44.9,71.1 µM,35.9,78.6,,> 100,40.8 µM,34.3 µM,81.1 µM,,,,,,,,,,
O=S(=O)(O)O.[NH-]C1CCCCC1[NH-].[Pt+2] (configuration not stated),> 100 µM,,> 100 µM,> 100,,> 100 µM,> 100,> 100 µM,> 100 µM,> 100 µM,8.95,32.3,40.7,,> 100,17.6,41,> 100,,50.2
Oc1ccc(-c2nnc3sc(-c4ccc(F)c(Oc5ccccc5)c4)nn23)cc1,> 100 µM,98.4,,50.3,80.6,> 100 µM,> 100,98.7 µM,> 100 µM,> 100 µM,22.2,,21.8,20.8,> 100,> 100,38.5,36.7,24.6,44.4
COc1cc(C(=O)c2ccc3c(c2)OCO3)cc(OC)c1OC,> 75.1 µM,> 100,7.93 µM,> 100,> 27.4,> 75.3 µM,> 100,,> 100 µM,> 100 µM,2.72,1.75,10.5,1.88,2.53,2.46,2.55,6.69,8.76,
Cc1ccc(NC(=O)CCC(CC(=O)C(C)(C)C)=NNC(=O)C(=O)NN)cc1C,> 100 µM,> 100,,> 100,> 100,> 100 µM,> 100,> 100 µM,> 100 µM,> 100 µM,,,,,,,,,,
Cc1ccc(NC(=O)C(=O)C2C(=O)N(c3ccccc3)N=C2N)cc1C (configuration not stated),> 100 µM,> 100,> 100 µM,> 100,> 100,> 100 µM,,> 100 µM,,,,,,,,,,,,
COC(=O)C1=C(O)c2cc(OC)c(OC)c(OC)c2[C@H](c2cc(OC)c(OC)c(OC)c2)C1C(=O)OC (some centres not stated),68.3 µM,> 100,> 100 µM,> 100,> 100,> 100 µM,> 100,> 100 µM,> 100 µM,,,,,,,,,,,
